IC50 data for 26 compounds are collected here from patent US10064861B2, “Macrocyclic pyridazinone derivatives” (Merck Patent GmbH, priority 2013, dated 2018).

A value given as a limit tells only on which side of the number the result lay.

One experiment has as its target IRAK1 (Homo sapiens (Human), UniProt P51617). As to the kind of experiment: IRAK1 enzymatic assay. The following applies: His-TEV-IRAK-1, ATP 1 μM, 3 hours at 30° C. It counts as biochemical. How it is done: IRAK1 is a human purified recombinant enzyme (His-TEV-IRAK1 (194-712)) In this assay, IRAK-1 hydrolyses ATP and autophosphorylates.
Measurement of IRAK-1 inhibition is performed in streptavidin coated 384 well FlashPlate (PerkinElmer #SMP410A).
His-TEV-IRAK-1 (15 ng/well), ATP (1 μM, [^33P]ATP 0.25 μCi/well) and compounds in DMSO (range of concentrations from 20 μM to 1 nM) or controls (2% DMSO) are incubated for 3 hours at 30° C. in assay buffer: Hepes pH 7.0 50 mM, Fatty acid-free BSA 0.1%, Dithiothreitol DTT 2 mM, MgCl2 10 mM, EGTA 0.5 mM, Triton-X-100 0.01%. Kinase reaction is stopped by addition of EDTA. Supernatant is discarded, plates are washed three times with 150 mM NaCl and radioactivity is then measured in a Microbeta Trilux reader.

Another experiment has as its target IRAK4 (Homo sapiens (Human), UniProt Q9NWZ3). As to the kind of experiment: IRAK4 enzymatic assay. It counts as biochemical. The following applies: His-TEV-IRAK4, ATP 2 μM, STK1-biotin peptide 300 nM, 3 hours at 30° C. How it is done:
IRAK4 is a human purified recombinant enzyme (His-TEV-IRAK1 (194-712) IRAK4 hydrolyses ATP, autophosphorylates and phosphorylates a Serine/Threonine generic peptidic substrate (STK: 61ST1BLC from CisBio International based in Bagnols/Cèze FR).
Measurement of IRAK-4 inhibition is performed in streptavidin coated 384 well FlashPlate (PerkinElmer #SMP410A). His-TEV-IRAK4 (20 ng/well), ATP (2 μM, [^33P]ATP 0.25 μCi/well), STK1-biotin peptide (300 nM) and compounds in DMSO (range of concentrations from 20 μM to 1 nM) or controls (2% DMSO) are incubated for 3 hours at 30° C. in assay buffer: Hepes pH 7.0 50 mM, Fatty acid-free BSA 0.1%, Dithiothreitol DTT 2 mM, MgCl2 10 mM, EGTA 0.5 mM, Tween-20 0.01%, MnCl2 5 mM.
Kinase reaction is stopped by addition of EDTA. Supernatant is discarded, plates are washed three times with 150 mM NaCl and radioactivity is then measured in a Microbeta Trilux reader.

The subject of experiment [1] is TLR7 induced IL-6 secretion in human mononuclear cells (PBMC's). Briefly: TLR7 induced IL-6 in human PBMC's. The settings on record: TLR7 specific ligand 2 uM overnight, IL-6 AlphaLISA. It counts as cell-based. How it is done:
TLR7 Induced IL-6 in Human PBMC's
Human PBMC assay is used as one of the functional assay to monitor the activity of IRAK1 and IRAK4 small molecule inhibitors on TLR7 induced IL-6 secretion in human mononuclear cells (PBMC's). Human PBMCs are prepared from buffy coats (whole blood enriched with leukocytes and platelets) obtained from healthy volunteers used either fresh or frozen are plated in assay media (RPMI+2% P/S/L-glu+10% HI-FBS) and pre-treated with compounds in DMSO/media (range of concentrations from 25 μM to 0.4 nM) or controls (0.25% DMSO) for 30 minutes at 37° C. in assay media. Following pre-treatment with IRAK1 and IRAK4 inhibitors, PBMC's are stimulated with TLR7 specific ligand (2 uM) overnight (16-18 hrs) at 37° C. After incubation supernatant is transferred to 384 well PE AlphaPlate-384 (6005350) and IL-6 is quantified using Perkin Elmer IL-6 Alpha LISA kit (AL223C). Plates are read on an Envision® plate reader with Alpha Technology®.
A general note: Alpha assays give light when donor and acceptor beads are brought close together.

IRAK1, sequence (P51617 194-712): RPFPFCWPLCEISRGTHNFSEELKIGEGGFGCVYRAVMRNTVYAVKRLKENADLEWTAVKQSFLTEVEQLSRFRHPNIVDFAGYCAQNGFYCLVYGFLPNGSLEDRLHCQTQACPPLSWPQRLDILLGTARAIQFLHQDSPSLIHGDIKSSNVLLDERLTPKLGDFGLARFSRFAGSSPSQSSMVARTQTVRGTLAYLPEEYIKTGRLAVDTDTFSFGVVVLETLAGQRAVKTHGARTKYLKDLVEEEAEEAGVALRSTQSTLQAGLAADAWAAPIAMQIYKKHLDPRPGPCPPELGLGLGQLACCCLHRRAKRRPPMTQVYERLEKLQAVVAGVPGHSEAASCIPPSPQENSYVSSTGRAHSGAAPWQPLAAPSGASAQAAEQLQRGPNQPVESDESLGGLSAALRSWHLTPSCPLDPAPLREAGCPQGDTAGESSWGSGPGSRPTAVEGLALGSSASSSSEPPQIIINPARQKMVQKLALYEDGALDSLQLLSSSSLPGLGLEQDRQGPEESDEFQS
IRAK4, sequence (Q9NWZ3 whole entry): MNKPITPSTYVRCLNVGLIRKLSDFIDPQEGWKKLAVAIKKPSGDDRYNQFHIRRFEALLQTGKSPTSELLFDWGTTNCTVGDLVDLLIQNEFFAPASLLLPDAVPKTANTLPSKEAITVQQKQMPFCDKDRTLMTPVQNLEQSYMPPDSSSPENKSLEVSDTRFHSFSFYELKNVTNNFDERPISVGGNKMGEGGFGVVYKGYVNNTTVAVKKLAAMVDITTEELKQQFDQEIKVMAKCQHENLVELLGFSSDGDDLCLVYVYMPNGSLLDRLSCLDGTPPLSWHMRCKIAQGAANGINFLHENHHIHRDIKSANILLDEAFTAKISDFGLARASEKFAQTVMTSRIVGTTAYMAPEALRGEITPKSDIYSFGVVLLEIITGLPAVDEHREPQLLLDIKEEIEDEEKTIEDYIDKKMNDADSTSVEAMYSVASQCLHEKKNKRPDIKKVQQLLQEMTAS

The IC50 is the concentration that inhibits the measured activity by half. Read a low IC50 as higher potency. For the compound `O=C1Nc2nc3cc(F)c(F)cc3n2Cc2cccc(c2)-c2ccc(=O)n(n2)Cc2cccc1c2` [Compound 6, 11,12-difluoro-8,15,17,25,29-pentaazahexacyclo[23.3.1.1^2,6.1^9,23.0^8,16.0^9,14]hentriaconta-1(29),2(31),3,5,9(14),10,12,15,19(30),20,22,27-dodecaene-18,26-dione], the values for the IC50 against IRAK1 and on IRAK4 were under 100 nM and 100 to 1000 nM, respectively.

For `Cc1cc(=O)n2nc1-c1cccc(c1)CCn1c(nc3ccccc31)NC(=O)c1cccc(c1)C2` [Compound 11, 3-methyl-6,14,16,23,32-pentaazahexacyclo[24.3.1.1^2,6.1^8,12.0^15,23.017,22]dotriaconta-1(30),2(32),3,8,10,12(31),15,17,19,21,26,28-dodecaene-5,13-dione], the IC50 on IRAK1 and at IRAK4 was under 100 nM throughout.

On to `COc1ccc2c(c1)nc1n2CCn2cc(cn2)-c2ccc(=O)n(n2)Cc2cccc(c2)C(=O)N1` [Compound 33], for which the IC50 against IRAK1 and at IRAK4 was under 100 nM in each case.

For `Cc1nn2c(C)c1-c1ccc(=O)n(n1)Cc1cccc(c1)C(=O)Nc1nc3ccccc3n1CC2` [Compound 28], the IC50 against IRAK1 and against IRAK4 was 100 to 1000 nM in each case.

Take `COc1ccc2cc1Cn1c(nc3ccccc31)NC(=O)c1cccc(c1)Cn1nc-2ccc1=O` [Compound 19, 5-methoxy-8,15,17,25,29-pentaazahexacyclo[23.3.1.1^2,6.1^19,23.0^8,16.0^9,14]hentriaconta-1(29),2(31),3,5,9(14),10,12,15,19(30),20,22,27-dodecaene-18,26-dione]: the half-inhibitory concentration (IC50) against IRAK1 was 100 to 1000 nM; against IRAK4, under 100 nM.

As for `O=C1Nc2nc3ccccc3n2CCOc2cccc(c2)-c2ccc(=O)n(n2)Cc2cccc1c2` [Compound 9, 26-oxa-6,14,16,23,33-pentaazahexacyclo[25.3.1.12,6,1^8,12}0^15,23.0^17,22]tritriaconta-1(31),2(33),3,8,10,12(32),15,17,19,21,27,29-dodecaene-5,13-dione], the 50% inhibitory concentration (IC50) against IRAK1 was under 100 nM; against IRAK4 it was 100 to 1000 nM.

For the compound `O=C1Nc2nc3ccccc3n2CCn2cc(cn2)-c2ccc(=O)n(n2)Cc2cccc1c2` [Compound 14, 4,6,8,15,17,25,29-heptaazahexacyclo[23.3.1.12,5.119,23.08,16.09,14]hentriaconta-1(29),2(31),3,9(14),10,12,15,19(30),20,22,27-undecaene-18,26-dione], in experiment [1], the 50% inhibitory concentration (IC50) is 100 to 1000 nM.

In the case of `CC1c2cccc(c2)C(=O)Nc2nc3ccccc3n2Cc2cccc(c2)-c2ccc(=O)n1n2` (stereo not drawn) [Compound 24], the IC50 at IRAK1 and at IRAK4 was under 100 nM each time.

On to `COc1cc2nc3n(c2cc1OC)CCn1cc(cn1)-c1ccc(=O)n(n1)Cc1cccc(c1)C(=O)N3` [Compound 22], for which the 50% inhibitory concentration (IC50) at IRAK1 and at IRAK4 was under 100 nM in each case.

With `COc1ccc2c(c1)nc1n2CC(O)CCOc2ccc(=O)n(n2)Cc2cccc(c2)C(=O)N1` (stereo not drawn) [Compound 35], the IC50 on IRAK1 and on IRAK4 was under 100 nM each time.

Take `CC[C@H]1c2cccc(c2)C(=O)Nc2nc3ccccc3n2Cc2cccc(c2)-c2ccc(=O)n1n2` [Compound 36a, 24-ethyl-8,15,17,26,29-pentaazahexacyclo[23.3.1.1^2,6.1^19,23.0^8,16.0^9,14]hentriaconta-1(29),2(31),3,5,9(14),10,12,15,19,21,23(30),27-dodecaene-18,26-dione]: the IC50 on IRAK1 and at IRAK4 was under 100 nM in each case.

For the compound `COc1ccc2cc1CCn1c(nc3ccccc31)NC(=O)c1cccc(c1)Cn1nc-2ccc1=O` [Compound 37], the IC50 on IRAK1 and on IRAK4 was under 100 nM each time.

On to `O=C1Nc2nc3cc(O)ccc3n2Cc2cccc(c2)-c2ccc(=O)n(n2)Cc2cccc1c2` [Compound 31], for which the IC50 against IRAK1 was under 100 nM; against IRAK4, 100 to 1000 nM.

`O=C1Nc2nc3ccccc3n2CCc2cc(ccc2O)-c2ccc(=O)n(n2)Cc2cccc1c2` [Compound 38]: the half-maximal inhibitory concentration (IC50) at IRAK1 and against IRAK4 was under 100 nM in each case.

Turning to `O=C1Nc2nc3ccccc3n2Cc2ccc(F)c(c2)-c2ccc(=O)n(n2)Cc2cccc1c2` [Compound 10, 3-Fluoro-8,15,17,25,29-pentaazahexacyclo[23.3.1.1^2,61^19,230^8,160^9,14]hentriaconta-1(29),2(31),3,5,9(14),10,12,15,19(30),20,22,27-dodecaene-18,26-dione], the IC50 against IRAK1 was under 100 nM; against IRAK4, 100 to 1000 nM.

For `COc1ccc2c(c1)nc1n2Cc2cccc(c2)-c2ccc(=O)n(n2)Cc2cccc(c2)C(=O)N1` [Compound 29], the IC50 at IRAK1 and on IRAK4 was under 100 nM in each case.

`O=C1Nc2nc3cc(CN4CCOCC4)ccc3n2Cc2cccc(c2)-c2ccc(=O)n(n2)Cc2cccc1c2` [Compound 27]: the IC50 at IRAK1 and on IRAK4 was under 100 nM in each case.

Consider `Cc1cc(=O)n2nc1-c1cccc(c1)Cn1c(nc3ccccc31)NC(=O)c1cccc(c1)C2` [Compound 4, 28-Methyl-8,15,17,25,29-pentaazahexacyclo[23.3.1.1^2,61^19,230^8,160^9,14]hentriaconta-1(29),2(31),3,5,9(14),10,12,15,19(30),20,22,27-dodecaene-18,26-dione], for which the IC50 was under 100 nM at IRAK1 and 100 to 1000 nM against IRAK4.

With `NCCc1ccc2c(c1)nc1n2Cc2cccc(c2)-c2ccc(=O)n(n2)Cc2cccc(c2)C(=O)N1` [Compound 23], the IC50 against IRAK1 and against IRAK4 was under 100 nM each time.

On to `O=C1Nc2nc3ccccc3n2Cc2cncc(c2)-c2ccc(=O)n(n2)Cc2cccc1c2` [Compound 7, 4,8,15,17,25,29-hexaazahexacyclo[23.3.1.1^2,6.1^19,23.0^8,16.0^9,14]hentriaconta-1(29),2(31),3,5,9(14),10,12,15,19(30),20,22,27-dodecaene-18,26-dione], for which the half-maximal inhibitory concentration (IC50) (in experiment [1]; against IRAK4) was under 100 nM each time.

Regarding `Cc1cc(=O)n2nc1OCCC(O)Cn1c(nc3ccccc31)NC(=O)c1cccc(c1)C2` (stereo not drawn) [Compound 30], the IC50 at IRAK1 and at IRAK4 was under 100 nM throughout.

Regarding `Cc1cc(=O)n2nc1-c1cnn(c1)CCn1c(nc3ccccc31)NC(=O)c1cccc(c1)C2` [Compound 26], the half-maximal inhibitory concentration (IC50) at IRAK1 and against IRAK4 was under 100 nM each time.

`COc1ccc2cc1-c1ccc(=O)n(n1)Cc1cccc(c1)C(=O)Nc1nc3ccccc3n1C2` [Compound 15, 3-methoxy-8,15,17,25,29-pentaazahexacyclo[23.3.1.1^2,6.1^19,23.0^8,16.0^9,14]hentriaconta-1(29),2(31),3,5,9(14),10,12,15,19(30),20,22,27-dodecaene-18,26-dione]: the IC50 against IRAK1 and against IRAK4 was under 100 nM in each case.

Regarding `O=C1Nc2nc3ccccc3n2C/C=C\COc2ccc(=O)n(n2)Cc2cccc1c2` [Compound 34], the IC50 against IRAK1 and against IRAK4 was under 100 nM in each case.

As to `CC[C@@H]1c2cccc(c2)C(=O)Nc2nc3ccccc3n2Cc2cccc(c2)-c2ccc(=O)n1n2` [Compound 36b, 24-ethyl-8,15,17,26,29-pentaazahexacyclo[23.3.1.1^2,6.1^19,23.0^8,16.0^9,14]hentriaconta-1(29),2(31),3,5,9(14),10,12,15,19,21,23(30),27-dodecaene-18,26-dione], the IC50 against IRAK1 is under 100 nM; against IRAK4 it was 100 to 1000 nM.

On to `O=C1Nc2nc3ccccc3n2Cc2ccc(Cl)c(c2)-c2ccc(=O)n(n2)Cc2cccc1c2` [Compound 13, 3-chloro-8,15,17,25,29-pentaazahexacyclo[23.3.1.1^2,6.1^19,23.0^8,16.0^9,14]hentriaconta-1(29),2(31),3,5,9(14),10,12,15,19(30),20,22,27-dodecaene-18,26-dione], for which the IC50 at IRAK1 is under 100 nM; against IRAK4, 100 to 1000 nM.
